Where two headings read alike, the source gives them in different places.
Tested on: panel of human cell lines
Test: In vitro proliferation assay, Cell Titer Glo, two doubling times, 298 cell lines
Format: cell-based
Conditions: read-out: ABS_IC50_VALUE
Excerpt: Cell Titer Glo measures ATP, thus the IC50s represent both the effect on purine production and cell proliferation, which are related. […] Folates are actively taken up in cells by reduced folate carrier (SLC19A1), proton-coupled folate transporter (SLC46A1), and the FOLR1 folate receptor[17]. Once inside the cell, folates are trapped by polyglutamation catalyzed by folylpolyglutamate synthetase (FPGS). […] Gene expression data for ATIC, GART, APRT, HPRT, FOLR1, SLC19A1, SLC46A1 & FPGS are shown in Fig. 2, since these genes were anticipated to predict sensitivity. […] The MDA-MB-231 cell line is reduced folate carrier (SLC19A1) negative due to epigenetic silencing.
Cells were cultured using recommended culture conditions unless noted otherwise (Supplemental Table 3). Cells were plated, dosed with compound and incubated at 37 °C for approximately 2 doubling times as determined for each cell line. Cell Titer Glo (Promega) assay was used to measure proliferation according to manufacturer’s recommendations by measuring luminescence with Flexstation3 (Molecular Devices) with 500 ms integration time. […] The % response was fit to a four-parameter logistic equation using ACTIVITYBASE 4.0 to determine the absolute IC50 values.
Cell Lines: Cell lines of adrenal gland, autonomic ganglia, biliary tract, blood ALL, blood AML, blood CML, blood hodgkin lymphoma, blood lymphoma, blood multiple myeloma, blood NHL, blood RAEB, bone, breast ER+, breast fibroblast, breast fibroblast mixed, breast HER2, breast normal, breast triple negative, cervix, CNS, endometrium, eye, fibroblast normal, kidney ns, kidney renal, large intestine, liver, liver normal, lung adenocarcinoma, lung ns, lung NSCLC, lung NSCLC mixed, lung SCLC, lung squamous, melanoma, melanoma normal, esophagus adenocarcinoma, esophagus ns, esophagus squamous, ovary, pancreas adenocarcinoma, pancreas ductal carcinoma, pancreas ns, pleura mesothelioma, prostate adenocarcinoma, prostate small cell, salivary gland, small intestine, soft tissue, stomach, testis, thyroid, thyroid squamous, umbilical vein endothelial cell normal, upper aerodigestive tract squamous, urinary tract ns, urinary tract transitional cell carcinoma, and vulva squamous origin were obtained from ATCC, CASTCC, CLS, DSMZ, ECACC, HSRRB, ICLC, JCRB, NCI, Riken and SNU cell banks. The murine A9 cell line was acquired from the ATCC (CCL-1.4).

O=c1[nH]ccc2cc(F)c(NS(=O)(=O)c3ccc(N4CC[C@@H](O)C4)s3)cc12 [LSN3213128, N-(6-Fluoro-1-oxo-1,2-dihydroisoquinolin-7-yl)-5-[(3R)-3-hydroxypyrrolidin-1-yl]thiophene-2-sulfonamide]
IC50 (Homo sapiens, 22Rv1, 22RV1, prostate): 13.7 µM
IC50 (Homo sapiens, 769-P, kidney): 1.21 µM
IC50 (Homo sapiens, 5637, urinary tract): 2.88 µM
IC50 (Homo sapiens, 8505C, thyroid): > 20 µM
IC50 (Homo sapiens, A101D, skin): 2.22 µM
IC50 (Homo sapiens, A204, A204, soft tissue): > 20 µM
IC50 (Homo sapiens, A253, A253, salivary gland): > 20 µM
IC50 (Homo sapiens, A498, A498, kidney): 12.2 µM
IC50 (Homo sapiens, A549, A549, lung): > 20 µM
IC50 (Homo sapiens, A2058, A2058, skin): > 20 µM
IC50 (Homo sapiens, A2780, A2780, ovary): 3.23 µM
IC50 (Homo sapiens, ACHN, kidney): 1.94 µM
IC50 (Homo sapiens, AGS, stomach): > 20 µM
IC50 (Homo sapiens, ASPC1, AsPC-1, pancreas): > 20 µM
IC50 (Homo sapiens, AU565, AU565, breast): 0.58 µM
IC50 (Homo sapiens, BCP-1, BCP-1, haematopoietic and lymphoid tissue): 11.1 µM
IC50 (Homo sapiens, BT-20, BT-20, breast): > 20 µM
IC50 (Homo sapiens, BT-474, BT-474, breast): > 20 µM
IC50 (Homo sapiens, BT-483, BT-483, breast): > 20 µM
IC50 (Homo sapiens, BT-549, BT-549, breast): > 20 µM
IC50 (Homo sapiens, BXPC-3, BxPC-3, pancreas): 4.49 µM
IC50 (Homo sapiens, C2BBe1, C2BBe1, large intestine): > 20 µM
IC50 (Homo sapiens, C3A, liver): 25.2 µM
IC50 (Homo sapiens, C32, skin): > 20 µM
IC50 (Homo sapiens, CA46, CA46, haematopoietic and lymphoid tissue): > 20 µM
IC50 (Homo sapiens, CAKI-1, Caki-1, kidney): > 20 µM
IC50 (Homo sapiens, CAKI-2, Caki-2, kidney): 5.03 µM
IC50 (Homo sapiens, CAMA-1, CAMA-1, breast): > 20 µM
IC50 (Homo sapiens, CAPAN-1, CAPAN-1, pancreas): > 20 µM
IC50 (Homo sapiens, CCF-STTG1, CCF-STTG1, central nervous system): > 20 µM
IC50 (Homo sapiens, CFPAC-1, CFPAC-1, pancreas): > 20 µM
IC50 (Homo sapiens, CHL-1, CHL-1, skin): > 20 µM
IC50 (Homo sapiens, CHP-212, CHP-212, autonomic ganglia): > 20 µM
IC50 (Homo sapiens, COLO 205, COLO-205, large intestine): 1.68 µM
IC50 (Homo sapiens, COLO-320-HSR, large intestine): 3.3 µM
IC50 (Homo sapiens, COLO-680N, oesophagus): 2.05 µM
IC50 (Homo sapiens, COLO-741, COLO-741, large intestine): 1.58 µM
IC50 (Homo sapiens, COR-L23, COR-L23, lung): 1.4 µM
IC50 (Homo sapiens, Calu-1, Calu-1, lung): > 20 µM
IC50 (Homo sapiens, Calu-3, Calu-3, lung): 2.27 µM
IC50 (Homo sapiens, Calu-6, Calu-6, lung): 11.9 µM
IC50 (Homo sapiens, Capan-2, Capan-2, pancreas): 15.3 µM
IC50 (Homo sapiens, ChaGo-K-1, ChaGo-K-1, lung): > 20 µM
IC50 (Homo sapiens, D341 Med, central nervous system): > 20 µM
IC50 (Homo sapiens, DB, haematopoietic and lymphoid tissue): 10.8 µM
IC50 (Homo sapiens, DMS-53, DMS-53, lung): > 20 µM
IC50 (Homo sapiens, Daoy, central nervous system): 1.02 µM
IC50 (Homo sapiens, Daudi, haematopoietic and lymphoid tissue): 1.1 µM
IC50 (Homo sapiens, EB1, haematopoietic and lymphoid tissue): 1.28 µM
IC50 (Homo sapiens, EB2, haematopoietic and lymphoid tissue): > 20 µM
IC50 (Homo sapiens, ES-2, ovary): > 20 µM
IC50 (Homo sapiens, F-36P, haematopoietic and lymphoid tissue): 0.79 µM
IC50 (Homo sapiens, G-361, G-361, skin): > 20 µM
IC50 (Homo sapiens, G-401, G-401, kidney): > 20 µM
IC50 (Homo sapiens, G-402, G-402, soft tissue): > 20 µM
IC50 (Homo sapiens, GCT, soft tissue): > 20 µM
IC50 (Homo sapiens, GI-1, central nervous system): 15.5 µM
IC50 (Homo sapiens, GP2d, large intestine): 14.3 µM
IC50 (Homo sapiens, HCC38, HCC38, breast): > 20 µM
IC50 (Homo sapiens, HCC70, HCC70, breast): > 20 µM
IC50 (Homo sapiens, HCC202, HCC202, breast): > 20 µM
IC50 (Homo sapiens, HCC827, HCC827, lung): 16 µM
IC50 (Homo sapiens, HCC1143, HCC1143, breast): > 20 µM
IC50 (Homo sapiens, HCC1187, HCC1187, breast): > 20 µM
IC50 (Homo sapiens, HCC1395, HCC1395, breast): > 20 µM
IC50 (Homo sapiens, HCC1419, HCC1419, breast): 10.4 µM
IC50 (Homo sapiens, HCC1599, HCC1599, breast): 3.65 µM
IC50 (Homo sapiens, HCC1806, HCC1806, breast): > 20 µM
IC50 (Homo sapiens, HCC1937, HCC1937, breast): 18.5 µM
IC50 (Homo sapiens, HCC1954, HCC1954, breast): 0.09 µM
IC50 (Homo sapiens, HCC2218, HCC2218, breast): > 20 µM
IC50 (Homo sapiens, HCT-15, HCT-15, large intestine): 3.51 µM
IC50 (Homo sapiens, HEC-1-A, endometrium): 13.6 µM
IC50 (Homo sapiens, HGC-27, HGC-27, stomach): > 20 µM
IC50 (Homo sapiens, HL-60, HL-60, haematopoietic and lymphoid tissue): > 20 µM
IC50 (Homo sapiens, HLE, liver): 15 µM
IC50 (Homo sapiens, HLF, liver): 9.35 µM
IC50 (Homo sapiens, HMCB, skin): 4.45 µM
IC50 (Homo sapiens, HPAF-II, pancreas): 11.1 µM
IC50 (Homo sapiens, HSC-2, HSC-2, upper aerodigestive tract): 1.28 µM
IC50 (Homo sapiens, HSC-3, HSC-3, upper aerodigestive tract): 7.22 µM
IC50 (Homo sapiens, HSC-4, HSC-4, upper aerodigestive tract): 2.95 µM
IC50 (Homo sapiens, HT1197, HT-1197, urinary tract): 0.37 µM
IC50 (Homo sapiens, HT-29, HT-29, large intestine): > 20 µM
IC50 (Homo sapiens, HT-144, HT-144, skin): > 20 µM
IC50 (Homo sapiens, HT-1080, HT-1080, soft tissue): 4 µM
IC50 (Homo sapiens, HT-1376, HT-1376, urinary tract): 0.49 µM
IC50 (Homo sapiens, Hs 294T, skin): > 20 µM
IC50 (Homo sapiens, Hs 606.T, breast): > 20 µM
IC50 (Homo sapiens, Hs 688(A).T, skin): > 20 µM
IC50 (Homo sapiens, Hs 695T, skin): > 20 µM
IC50 (Homo sapiens, Hs 739.T, breast): > 20 µM
IC50 (Homo sapiens, Hs 839.T, skin): > 20 µM
IC50 (Homo sapiens, Hs 940.T, skin): > 20 µM
IC50 (Homo sapiens, HuCCT-1, HuCCT1, biliary tract): 17.1 µM
IC50 (Homo sapiens, HuG1-N, stomach): 2.53 µM
IC50 (Homo sapiens, HuTu80, HUTU-80, small intestine): 0.83 µM
IC50 (Homo sapiens, Huh-7, HuH-7, liver): 12.5 µM
IC50 (Homo sapiens, IA-LM, lung): > 20 µM
IC50 (Homo sapiens, J82, urinary tract): > 20 µM
IC50 (Homo sapiens, JHH7, JHH-7, liver): 28.3 µM
IC50 (Homo sapiens, K562, K-562, haematopoietic and lymphoid tissue): 0.67 µM
IC50 (Homo sapiens, KALS-1, KALS-1, central nervous system): > 20 µM
IC50 (Homo sapiens, KE-97, KE-97, stomach): 1.09 µM
IC50 (Homo sapiens, KG-1, haematopoietic and lymphoid tissue): > 20 µM
IC50 (Homo sapiens, KLE, endometrium): > 20 µM
IC50 (Homo sapiens, KM12, KM12, large intestine): 2.05 µM
IC50 (Homo sapiens, KNS-42, KNS-42, central nervous system): > 20 µM
IC50 (Homo sapiens, KNS-62, KNS-62, lung): 16 µM
IC50 (Homo sapiens, KNS-81, central nervous system): > 20 µM
IC50 (Homo sapiens, KP-4, pancreas): 0.74 µM
IC50 (Homo sapiens, KU812, KU812, haematopoietic and lymphoid tissue): 0.08 µM
IC50 (Homo sapiens, KYSE-410, KYSE-410, oesophagus): 1.56 µM
IC50 (Homo sapiens, Kasumi-6, haematopoietic and lymphoid tissue): > 20 µM
IC50 (Homo sapiens, LOUCY, haematopoietic and lymphoid tissue): 1.76 µM
IC50 (Homo sapiens, LUDLU-1, LUDLU-1, lung): > 20 µM
IC50 (Homo sapiens, MCF7, MCF7, breast): 11.1 µM
IC50 (Homo sapiens, MDA-MB-157, MDA-MB-157, breast): > 20 µM
IC50 (Homo sapiens, MDA-MB-415, MDA-MB-415, breast): > 20 µM
IC50 (Homo sapiens, MDA-MB-436, MDA-MB-436, breast): > 20 µM
IC50 (Homo sapiens, MDA-MB-453, MDA-MB-453, breast): > 20 µM
IC50 (Homo sapiens, MDA-MB-468, MDA-MB-468, breast): 0.44 µM
IC50 (Homo sapiens, MEG-01, MEG-01, haematopoietic and lymphoid tissue): 0.29 µM
IC50 (Homo sapiens, MG-63, MG-63, bone): > 20 µM
IC50 (Homo sapiens, MKN-1, MKN1, stomach): > 20 µM
IC50 (Homo sapiens, MKN-45, MKN45, stomach): > 20 µM
IC50 (Homo sapiens, MKN-74, MKN74, stomach): > 20 µM
IC50 (Homo sapiens, MOLT-4, MOLT-4, haematopoietic and lymphoid tissue): 1.11 µM
IC50 (Homo sapiens, MSTO-211H, pleura): > 20 µM
IC50 (Homo sapiens, Malme-3M, skin): > 20 µM
IC50 (Homo sapiens, NCI-H23, NCI-H23, lung): 14.4 µM
IC50 (Homo sapiens, NCI-H28, NCI-H28, pleura): > 20 µM
IC50 (Homo sapiens, NCI-H69, NCI-H69, lung): 18.5 µM
IC50 (Homo sapiens, NCI-H82, NCI-H82, lung): 2.28 µM
IC50 (Homo sapiens, NCI-H209, NCI-H209, lung): 5.55 µM
IC50 (Homo sapiens, NCI-H226, NCI-H226, lung): 4.52 µM
IC50 (Homo sapiens, NCI-H358, NCI-H358, lung): 6.06 µM
IC50 (Homo sapiens, NCI-H441, NCI-H441, lung): > 20 µM
IC50 (Homo sapiens, NCI-H446, NCI-H446, lung): 1.68 µM
IC50 (Homo sapiens, NCI-H460, NCI-H460, lung): 0.97 µM
IC50 (Homo sapiens, NCI-H508, NCI-H508, large intestine): 13.1 µM
IC50 (Homo sapiens, NCI-H520, NCI-H520, lung): 9.66 µM
IC50 (Homo sapiens, NCI-H522, NCI-H522, lung): 9.92 µM
IC50 (Homo sapiens, NCI-H524, NCI-H524, lung): 11.3 µM
IC50 (Homo sapiens, NCI-H596, NCI-H596, lung): > 20 µM
IC50 (Homo sapiens, NCI-H647, NCI-H647, lung): 1.4 µM
IC50 (Homo sapiens, NCI-H650, NCI-H650, lung): 8.6 µM
IC50 (Homo sapiens, NCI-H660, NCI-H660, prostate): 7.16 µM

Source: article PMC6193938, “Characterization of a novel AICARFT inhibitor which potently elevates ZMP and has anti-tumor activity in murine models” (Scientific Reports, 2018)
